According to patent publication US20130338367A1, “PYRAZOLE DERIVATIVES AND PESTICIDES” (Nissan Chemical Industries, Ltd., priority 2011, published 2013):
Structures can show the parent of a compound that is named as a salt.

What was measured:
Nilaparvata lugens = assay: Insecticidal Test on Nilaparvata lugens; format: in vivo; settings: 144 h, 500 ppm solution, rice sheaths soaked, 2nd-instar nymphs, 25° C., 6 days after, read-out: mortality (%)
Protocol: 10% emulsifiable concentrates (or 10% wettable powders) of compounds of the present invention were diluted with water containing a spreader to obtain 500 ppm solutions. Rice sheaths were soaked in the solutions for about 10 seconds, dried in air and put in test tubes. In each tube, five 2nd-instar nymphs of Nilaparvata lugens were released, and the tubes were capped with sponge and placed in an incubator at 25° C. 6 Days after, dead insects were counted, and the mortality (%) (the number of dead insects÷the number of released insects×100) was calculated. The test was carried out in duplicate.

Bemisia argentifolii = assay: Insecticidal Test on Bemisia argentifolii; format: in vivo; settings: 120 h, 500 ppm solution sprayed on kidney bean leaves, adults, 25° C., 5 days after, read-out: mortality
Protocol: In styrol cups having an inner diameter of 7 cm, wet filter paper was laid, and kidney bean leaves cut to 3 cm were laid on the paper. 10% emulsifiable concentrates (or 10% wettable powders) of compounds of the present invention were diluted with water containing a spreader to obtain 500 ppm solutions. 2.5 ml of the solutions were sprayed from a rotary spray tower into the styrol cups (2.5 mg/cm^2). The leaves were dried in air, and adults of Bemisia argentifolii were released in the cups. The cups were closed and placed in an incubator at 25° C. 5 Days after, dead insects were counted, and the mortality was calculated by using the same equation as in Test Example 1. The test was carried out in duplicate.

Aphis gossypii = assay: Insecticidal Test on Aphis gossypii; format: in vivo; settings: foliar, 144 h, 500 ppm solution sprayed, apterous adults on cucumber leaf discs, 25° C., 6 days after, read-out: mortality
Protocol: (§1) Wet absorbent cotton was laid on glass dishes having an inner diameter of 3 cm, and covered with leaves of cucumber cut into circles of the same diameter, and 4 apterous adults of Aphis gossypii were released. After a day, 10% emulsifiable concentrates (or 10% wettable powders) of compounds of the present invention were diluted with water containing a spreader to obtain 500 ppm solutions, and the solution were sprayed from a rotary spray tower (2.5 mg/cm^2). The dishes were covered with lids and placed in an incubator at 25° C. 6 Days after, dead insects were counted, and the mortality was calculated by using the same equation as in Test Example 1. The test was carried out in duplicate.

Myzus persicae [1] = assay: Insecticidal Test on Myzus persicae; format: in vivo; settings: foliar, 144 h, 500 ppm solution sprayed, apterous adults on leaf discs, 25° C., 6 days after, read-out: mortality
Protocol: as §1, with “Canarium album” for “cucumber”, “Myzus persicae” for “Aphis gossypii”

Myzus persicae [2] = assay: Soil Irrigation Test on Myzus persicae; format: in vivo; settings: 144 h, 100 ppm solution, 10 ml soil irrigation of cabbage seedlings, greenhouse, 6 days after release of insects
Protocol: 10% emulsifiable concentrates of compounds of the present invention were diluted with tap water to obtain 100 ppm solutions. The soil around the bases of cabbage seedlings (at the 2.5 true leaf stage) planted in plastic cups was irrigated with 10 ml of the solutions, and the cups were placed in a greenhouse. One day after the irrigation, adults of Myzus persicae were released at a ratio of 20 insects per seedling, and the seedlings were incubated in the greenhouse. 6 Days after the release of the insects, living insects were counted, and the control value was calculated from the following equation.
Control value (%)={1−(Cb×Tai)/(Cai×Tb)}×100
Cb: the number of insects in a non-treated area before treatment
Cai: the final number of living insects in a non-treated area
Tb: the number of insects in a treated area before treatment
Tai: the final number of living insects in a treated area

Row | SMILES | melting point | mortality at 500 ppm (Nilaparvata lugens) | mortality at 500 ppm (Bemisia argentifolii) | mortality at 500 ppm (Aphis gossypii) | mortality at 500 ppm (Myzus persicae [1]) | pest or weed control at 100 ppm (Myzus persicae [2])
1 | CCN(C(=O)[C@H](C)CSC)c1cn(-c2cccnc2)nc1Cl [1-048(S)-(−), (S)-(−)-N-{3-chloro-1-(pyridin-3-yl)-1H-pyrazol-4-yl}-N-ethyl-2-methyl-3-(methylthio)propanamide] |  | ≥ 90% | ≥ 90% | ≥ 90% | ≥ 90% | ≥ 90%
2 | O=C(Nc1cnn(-c2cccnc2)c1)C(Br)CCCBr (stereo not shown) [1-025, 2,5-dibromo-N-{1-(pyridin-3-yl)-1H-pyrazol-4-yl}pentanamide] | 114 to 115 °C |  |  |  |  | 
3 | Cc1nn(-c2cccnc2)cc1NC(=O)OC(C)(C)C [1-011, tert-butyl 3-methyl-1-(pyridin-3-yl)-1H-pyrazol-4-ylcarbamate] |  | ≥ 90% | ≥ 90% | ≥ 90% | ≥ 90% | ≥ 90%
4 | CSCC(=O)N(C)C(C)=Nc1cn(-c2cccnc2)nc1C [3-004, N-methyl-N-[1-{3-methyl-1-(pyridin-3-yl)-1H-pyrazol-4-ylimino}ethyl]-2-(methylthio)acetamide] |  | ≥ 90% | ≥ 90% |  |  | ≥ 90%
5 | CSCC(C)(C)C(=O)N(C)c1cn(-c2cccnc2)nc1Cl [1-134, N-{3-chloro-1-(pyridin-3-yl)-1H-pyrazol-4-yl}-N,2,2-trimethyl-3-(methylthio)propanamide] |  | ≥ 90% | ≥ 90% | ≥ 90% | ≥ 90% | ≥ 90%
6 | CN(C(=O)CCS(C)(=O)=O)c1cn(-c2cccnc2)nc1Cl [1-052, N-{3-chloro-1-(pyridin-3-yl)-1H-pyrazol-4-yl}-N-methyl-3-(methylsulfonyl)propanamide] | 90 to 91 °C |  |  |  |  | ≥ 90%
7 | O=C1CCCCN1c1cnn(-c2cccnc2)c1 [1-034, 1-{1-(pyridin-3-yl)-1H-pyrazol-4-yl}piperidin-2-one] | 123 to 124 °C |  |  |  |  | 
8 | CCN(C(=O)C(CSC)=NOC)c1cn(-c2cccnc2)nc1Cl [1-143, N-{3-chloro-1-(pyridin-3-yl)-1H-pyrazol-4-yl}-N-ethyl-2-(methoxyimino)-3-(methylthio)propanamide] |  |  |  |  |  | ≥ 90%
9 | CCSC(C)C(=S)Nc1cn(-c2cccnc2)nc1Cl (stereo not shown) [1-353, N-{3-chloro-1-(pyridin-3-yl)-1H-pyrazol-4-yl}-2-(ethylthio)propanethioamide] |  | ≥ 90% |  |  |  | ≥ 90%
10 | CSCC1CCN(c2cn(-c3cccnc3)nc2Cl)C1=O (stereo not shown) [1-141, 1-{3-chloro-1-(pyridin-3-yl)-1H-pyrazol-4-yl}-3-(methylthiomethyl)pyrrolidin-2-one] | 83 to 84 °C |  |  |  |  | 
11 | CCSC(C)C(=O)N(CC)c1cn(-c2cccnc2)nc1Cl (stereo not shown) [1-118, N-{3-chloro-1-(pyridin-3-yl)-1H-pyrazol-4-yl}-N-ethyl-2-(ethylthio)propanamide] | 65 to 66 °C |  |  |  |  | ≥ 90%

Further lines, with some results ahead:

Row | melting point | SMILES | mortality at 500 ppm (Nilaparvata lugens) | mortality at 500 ppm (Bemisia argentifolii) | mortality at 500 ppm (Aphis gossypii) | mortality at 500 ppm (Myzus persicae [1]) | pest or weed control at 100 ppm (Myzus persicae [2])
12 | 140 to 150 °C | CS(=O)(=O)Nc1cnn(-c2cccnc2)c1 [2-001] |  |  |  |  | 
13 | 113 to 116 °C | CCNc1cn(-c2cccnc2)nc1C (as salt: hydrochloride) [B-002, N-ethyl-3-methyl-1-(pyridin-3-yl)-1H-pyrazole-4-amine] |  |  |  |  | 
14 | 72 to 78 °C | Clc1nn(-c2cccnc2)cc1NCC1CC1 [B-014, 3-chloro-N-(cyclopropylmethyl)-1-(pyridin-3-yl)-1H-pyrazole-4-amine] |  |  |  |  | 
